Assay results: US12459951B2, “Compounds that interact with RAS superfamily proteins for treatment of cancers, inflammatory diseases, rasopathies, and fibrotic disease” (SHY Therapeutics, LLC, priority 2022, dated 2025)

Legend:
[1] = system: KRas wild type; test: Ras GTP Binding Domain Inhibition Assay (Ras Superfamily Assay); settings: 20 μM compound; for KRas wild type + SOS: % inh.: with SOS; for KRas wild type: % inh.: without SOS
Outline: (§1)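 Ni-plate capture of His-tagged protein (10-30 μg/mL, o/n 4° C); cpd 20 μM or dilution series, 1% DMSO, 3 h RT ± Sos 556-1049 last h; 100 nM Cy-labelled GTP 45 min RT; 3× wash; fluorescence read.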

[2] = system: KRas G12D mutant; test: as above; settings: 20 μM compound; for KRas G12D mutant + SOS: % inh.: with SOS; for KRas G12D mutant: % inh.: without SOS
Outline: as §1

[3] = molecular target: T1, Rac-1 (Homo sapiens, UniProt P63000); test: as above; settings: read-out: Rac-1: % inh.
T1 construct: made in house
Outline: as §1

[4] = system: Akt phosphorylation; test: Akt Phosphorylation Assay (western blot), Panc-1; assay type: cell-based, human; settings: at 10 μM, * = activation
Outline: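 Panc-1 (KRas G12D) cells were treated with compound at 10 μM final (0.3% DMSO) for 6 h at 37 °C, or with serial dilutions for IC50. Cells were either serum-starved overnight in 0.5% FBS and then stimulated with 1.5 ng/ml EGF for 15 min, or kept in 10% FBS without stimulation. Akt Ser473 phosphorylation in lysates was read by western blot.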

| SMILES | KRas wild type + SOS: % inh. [1] | KRas wild type: % inh. [1] | KRas G12D mutant + SOS: % inh. [2] | KRas G12D mutant: % inh. [2] | inhibition at 20 µM [3] [%] | % inh of Akt phosphorylation in Panc-1 [4] |
| --- | --- | --- | --- | --- | --- | --- |
| COc1ccnc(Nc2nc(-c3nccn3C)nn3cc(-c4cccnc4)c(-c4ccccn4)c23)c1 [Compound 166, N-(4-Methoxypyridin-2-yl)-2-(1-methyl-1H-imidazol-2-yl)-5-(pyridin-2-yl)-6-(pyridin-3-yl)pyrrolo[2,1-f][1,2,4]triazin-4-amine] | D (D = 76-100% inhibition) | C (C = 50-75% inhibition) | D (D = 76-100% inhibition) | D (D = 76-100% inhibition) | 76 to 100 | D* (85-100% activation) |
| Cc1c(-c2ccn(C)n2)cn2nc(-c3nccn3C)nc(Cl)c12 [Compound 99, 4-Chloro-5-methyl-2-(1-methyl-1H-imidazol-2-yl)-6-(1-methyl-1H-pyrazol-3-yl)pyrrolo[2,1-f][1,2,4]triazine] | B (B = 26-49% inhibition) | C (C = 50-75% inhibition) | B (B = 26-49% inhibition) | B (B = 26-49% inhibition) | 50 to 75 | A* (1-25% activation) |
| COc1cc(-c2cn3nc(-c4nccn4C)nc(N[C@H]4C[C@H](OC)C4)c3c2C)ccn1 [Compound 160, N-((1r,3r)-3-Methoxycyclobutyl)-6-(2-methoxypyridin-4-yl)-5-methyl-2-(1-methyl-1H-imidazol-2-yl)pyrrolo[2,1-f][1,2,4]triazin-4-amine] | 0 (0 = 0% inhibition) | 0 (0 = 0% inhibition) | A (A = 1-25% inhibition) | 0 (0 = 0% inhibition) | 1 to 25 | B* (26-49% activation) |
| Cc1c(-c2cccnc2)cn2nc(-c3nccn3C)nc(Nc3ccncn3)c12 [Compound 156, 5-Methyl-2-(1-methyl-1H-imidazol-2-yl)-6-(pyridin-3-yl)-N-(pyrimidin-4-yl)pyrrolo[2,1-f][1,2,4]triazin-4-amine] | D (D = 76-100% inhibition) | D (D = 76-100% inhibition) | D (D = 76-100% inhibition) | D (D = 76-100% inhibition) | 76 to 100 | D* (85-100% activation) |
| CO[C@H]1C[C@@H](Nc2nc(-c3nccn3C)nn3cc(-c4cccnc4)c(C)c23)C1 [Compound 153, N-((1s,3s)-3-methoxy-cyclobutyl)-5-methyl-2-(1-methyl-1H-imidazol-2-yl)-6-(pyridin-3-yl)pyrrolo[2,1-f][1,2,4]triazin-4-amine] | B (B = 26-49% inhibition) | B (B = 26-49% inhibition) | C (C = 50-75% inhibition) | C (C = 50-75% inhibition) | 50 to 75 | B (26-49% inhibition) |
| CCc1nc(Nc2nc(-c3nccn3C)nn3cc(-c4ccn(C)n4)c(C)c23)nn1C [Compound 108, N-(5-Ethyl-1-methyl-1H-1,2,4-triazol-3-yl)-5-methyl-2-(1-methyl-1H-imidazol-2-yl)-6-(1-methyl-1H-pyrazol-3-yl)pyrrolo[2,1-f][1,2,4]triazin-4-amine] | C (C = 50-75% inhibition) | D (D = 76-100% inhibition) | C (C = 50-75% inhibition) | D (D = 76-100% inhibition) | 76 to 100 | D* (85-100% activation) |

The next lines start with results.

| KRas wild type + SOS: % inh. [1] | KRas wild type: % inh. [1] | KRas G12D mutant + SOS: % inh. [2] | KRas G12D mutant: % inh. [2] | inhibition at 20 µM [3] [%] | SMILES | % inh of Akt phosphorylation in Panc-1 [4] |
| --- | --- | --- | --- | --- | --- | --- |
| D (D = 76-100% inhibition) | C (C = 50-75% inhibition) | D (D = 76-100% inhibition) | D (D = 76-100% inhibition) | 50 to 75 | Cc1c(-c2ccn(C3CC3)n2)cn2nc(-c3nccn3C)nc(Nc3cc(OC(F)(F)F)ccn3)c12 [Compound 138, 6-(1-Cyclopropyl-1H-pyrazol-3-yl)-5-methyl-2-(1-methyl-1H-imidazol-2-yl)-N-(4-(trifluoromethoxy)pyridin-2-yl)pyrrolo[2,1-f][1,2,4]triazin-4-amine] | D* (85-100% activation) |
| D (D = 76-100% inhibition) | D (D = 76-100% inhibition) | D (D = 76-100% inhibition) | D (D = 76-100% inhibition) | 76 to 100 | Cc1c(-c2ccn(C3CC3)n2)cn2nc(-c3nccn3C)nc(Nc3cc(OCCCO)ccn3)c12 [Compound 149, 3-((2-((6-(1-Cyclopropyl-1H-pyrazol-3-yl)-5-methyl-2-(1-methyl-1H-imidazol-2-yl)pyrrolo[2,1-f][1,2,4]triazin-4-yl)amino)pyridin-4-yl)oxy)propan-1-ol] | D* (85-100% activation) |
| B (B = 26-49% inhibition) | C (C = 50-75% inhibition) | C (C = 50-75% inhibition) | C (C = 50-75% inhibition) | 50 to 75 | Cc1c(-c2ccn(C(C)C)n2)cn2nc(-c3nccn3C)nc(Nc3ncc[nH]3)c12 [Compound 125, N-(1H-Imidazol-2-yl)-6-(1-isopropyl-1H-pyrazol-3-yl)-5-methyl-2-(1-methyl-1H-imidazol-2-yl)pyrrolo[2,1-f][1,2,4]triazin-4-amine] | D* (85-100% activation) |
| C (C = 50-75% inhibition) | D (D = 76-100% inhibition) | C (C = 50-75% inhibition) | D (D = 76-100% inhibition) | 50 to 75 | COc1cc(Nc2nc(-c3nccn3C)nn3cc(-c4ccn(C(C)C)n4)c(C)c23)ncn1 [Compound 6, 6-(1-Isopropyl-1H-pyrazol-3-yl)-N-(6-methoxypyrimidin-4-yl)-5-methyl-2-(1-methyl-1H-imidazol-2-yl)pyrrolo[2,1-f][1,2,4]triazin-4-amine] | 0 (0% inhibition) |
| C (C = 50-75% inhibition) | D (D = 76-100% inhibition) | C (C = 50-75% inhibition) | C (C = 50-75% inhibition) | 1 to 25 | Cc1c(-c2ccn(C)n2)cn2nc(-c3nccn3C)nc(Nc3ncccn3)c12.Cl [Compound 115, 5-Methyl-2-(1-methyl-1H-imidazol-2-yl)-6-(1-methyl-1H-pyrazol-3-yl)-N-(pyrimidin-2-yl)pyrrolo[2,1-f][1,2,4]triazin-4-amine hydrochloride salt] | D* (85-100% activation) |
| D (D = 76-100% inhibition) | C (C = 50-75% inhibition) | D (D = 76-100% inhibition) | D (D = 76-100% inhibition) | 76 to 100 | Cc1c(-c2ccn(C)n2)cn2nc(-c3nccn3C)nc(Nc3cc(OC(C)C)ccn3)c12 [Compound 136, N-(4-Isopropoxypyridin-2-yl)-5-methyl-2-(1-methyl-1H-imidazol-2-yl)-6-(1-methyl-1H-pyrazol-3-yl)pyrrolo[2,1-f][1,2,4]triazin-4-amine] | D* (85-100% activation) |
| B (B = 26-49% inhibition) | C (C = 50-75% inhibition) | B (B = 26-49% inhibition) | C (C = 50-75% inhibition) | 50 to 75 | COc1ccnc(Nc2nc(-c3nccn3C)nn3cc(-c4ccn(C5CC5)n4)c(C)c23)c1 [Compound 137, 6-(1-Cyclopropyl-1H-pyrazol-3-yl)-N-(4-methoxypyridin-2-yl)-5-methyl-2-(1-methyl-1H-imidazol-2-yl)pyrrolo[2,1-f][1,2,4]triazin-4-amine] | D* (85-100% activation) |
